Read-outs that look alike come from different tables or passages of the source.

Series [1] deals with Septoria tritici. As to the kind of experiment: Fungicidal activity: leaf blotch of wheat, one-day protectant and three-day curative tests on wheat plants. Format: in vivo. The following applies: Zymoseptoria tritici. The protocol:
Example 16: Evaluation of Fungicidal Activity: Leaf Blotch of Wheat (Mycosphaerella graminicola; anamorph: Septoria tritici; Bayer code SEPTTR)
Wheat plants (variety Yuma) were grown from seed in a greenhouse in 50% mineral soil/50% soil-less Metro mix until the first leaf was fully emerged, with 7-10 seedlings per pot. These plants were inoculated with an aqueous spore suspension of Septoria tritici either prior to or after fungicide treatments. After inoculation the plants were kept in 100% relative humidity (one day in a dark dew chamber followed by two to three days in a lighted dew chamber) to permit spores to germinate and infect the leaf. The plants were then transferred to a greenhouse for disease to develop.
The following tables present the activity of typical compounds of the present disclosure when evaluated in these experiments. The effectiveness of the test compounds in controlling disease was determined by assessing the severity of disease on treated plants, then converting the severity to percent control based on the level of disease on untreated, inoculated plants.
The following table presents the activity of typical compounds of the present disclosure when evaluated in these experiments. The effectiveness of the test compounds in controlling disease was determined by assessing the severity of disease on treated plants, then converting the severity to percent control based on the level of disease on untreated, inoculated plants.

The mark [2] stands for this setting: 24 h, One-Day Protectant (1 DP), 100 ppm, wheat plants (variety Yuma), read-out: SEPTTR 100 PPM 1 DP (% Disease Control rating).
The mark [3] stands for this setting: 72 h, Three-Day Curative (3 DC), 100 ppm, wheat plants (variety Yuma), read-out: SEPTTR 100 PPM 3 DC (% Disease Control rating).
Where [4] appears, read: 24 h, read-out: SEPTTR 100 PPM 1 DP (% Disease Control rating).
Setting [5] is: 72 h, read-out: SEPTTR 100 PPM 3 DC (% Disease Control rating).

In the case of `CC(=O)/N=c1\c(F)cn(S(=O)(=O)c2ccccc2)c(=O)n1C` [Compound F30], the melting point – broadly, the temperature of the solid-liquid transition – is 174 °C. In addition, the pest or weed control at 100 ppm in series [1] (setting [2]) was in the range of 76 to 100%. Besides, in series [1] (setting [3]), the pest or weed control at 100 ppm is 76 to 100%.
`CCc1ccc(S(=O)(=O)n2cc(F)/c(=N\C(C)=O)n(C)c2=O)cc1` [Compound F32]: the melting point stood at 158 °C. Besides, in series [1] (setting [2]), the pest or weed control at 100 ppm is 76 to 100%. In addition, the pest or weed control at 100 ppm in series [1] (setting [3]) was in the range of 76 to 100%.
With `CC(=O)/N=c1\c(F)cn(S(=O)(=O)c2ccc(C(C)C)cc2)c(=O)n1C` [Compound F33], the melting point amounted to 165 °C. Further, the pest or weed control at 100 ppm in series [1] (setting [2]) fell in the range of 76 to 100%. Further, the pest or weed control at 100 ppm in series [1] (setting [3]) lay in the range of 26 to 50%.
Turning to `CC(=O)/N=c1\c(F)cn(S(=O)(=O)c2cccc(C)c2)c(=O)n1C` [Compound F34], the melting point was determined as 164 °C. The pest or weed control at 100 ppm in series [1] (setting [2]) fell in the range of 76 to 100%. For the same compound, the pest or weed control at 100 ppm in series [1] (setting [3]) is 0 to 25%.
`CC(=O)/N=c1\c(F)cn(S(=O)(=O)c2cc(C)c(Cl)cc2C)c(=O)n1C` [Compound F35] gave a melting point of 173 °C. Further, the pest or weed control at 100 ppm in series [1] (setting [2]) was in the range of 76 to 100%. Besides, in series [1] (setting [3]), the pest or weed control at 100 ppm was 26 to 50%.
The like results for `CC(=O)/N=c1\c(F)cn(S(=O)(=O)c2cc(Cl)sc2Cl)c(=O)n1C` [Compound F36] were, in that order, 154 °C, 76 to 100% and 51 to 75%.
For the compound `Cc1ccc(S(=O)(=O)n2cc(F)/c(=N\C(=O)c3ccccc3)n(C(=O)c3ccccc3)c2=O)cc1` [Compound F37, (E)-N-(3-benzoyl-5-fluoro-2-oxo-1-tosyl-2,3-dihydropyrimidin-4(1H)-ylidene)benzamide], the melting point is 180.8 to 182.2 °C. For the same compound, the pest or weed control at 100 ppm in series [1] (setting [2]) lay in the range of 0 to 25%. Further, in series [1] (setting [3]), the pest or weed control at 100 ppm lay within 0 to 25%.
`Cn1c(=O)n(S(=O)(=O)c2ccccc2)cc(F)/c1=N\C(=O)Oc1ccccc1` [Compound F38] came in with a melting point of 170 to 171 °C. Also, in series [1] (setting [4]), the pest or weed control at 100 ppm fell in the range of 76 to 100%. Also, in series [1] (setting [5]), the pest or weed control at 100 ppm was 76 to 100%.
`Cc1ccc(S(=O)(=O)n2cc(F)/c(=N\C(=O)Oc3ccccc3)n(C)c2=O)cc1` [Compound F39] yielded a melting point of 200 to 202 °C. Moreover, the pest or weed control at 100 ppm in series [1] (setting [4]) was in the range of 26 to 50%. The pest or weed control at 100 ppm in series [1] (setting [5]) fell in the range of 26 to 50%.
The compound `CCc1ccc(S(=O)(=O)n2cc(F)/c(=N\C(=O)Oc3ccccc3)n(C)c2=O)cc1` [Compound F40] registered a melting point of 188 to 190 °C. The pest or weed control at 100 ppm in series [1] (setting [4]) fell in the range of 0 to 25%. In addition, in series [1] (setting [5]), the pest or weed control at 100 ppm is 0 to 25%.
`CC(C)c1ccc(S(=O)(=O)n2cc(F)/c(=N\C(=O)Oc3ccccc3)n(C)c2=O)cc1` [Compound F41] gave a melting point of 180 to 181 °C. Moreover, in series [1] (setting [4]), the pest or weed control at 100 ppm is 0 to 25%. Further, the pest or weed control at 100 ppm in series [1] (setting [5]) fell in the range of 0 to 25%.
Compound `Cc1cccc(S(=O)(=O)n2cc(F)/c(=N\C(=O)Oc3ccccc3)n(C)c2=O)c1` [Compound F42] had a melting point of 187 to 188 °C. Moreover, in series [1] (setting [4]), the pest or weed control at 100 ppm was 76 to 100%. Also, the pest or weed control at 100 ppm in series [1] (setting [5]) fell in the range of 0 to 25%.
The compound `Cc1cc(S(=O)(=O)n2cc(F)/c(=N\C(=O)Oc3ccccc3)n(C)c2=O)c(C)cc1Cl` [Compound F43] came in with a melting point of 209 to 211 °C. In addition, in series [1] (setting [4]), the pest or weed control at 100 ppm was in the range of 0 to 25%. In series [1] (setting [5]), the pest or weed control at 100 ppm is 0 to 25%.
For `Cn1c(=O)n(S(=O)(=O)c2cc(Cl)sc2Cl)cc(F)/c1=N\C(=O)Oc1ccccc1` [Compound F44], the melting point was in the range of 158 to 159 °C. In series [1] (setting [4]), the pest or weed control at 100 ppm lay in the range of 76 to 100%. For the same compound, the pest or weed control at 100 ppm in series [1] (setting [5]) lay in the range of 76 to 100%.
On to `COC(=O)/N=c1\c(F)cn(S(=O)(=O)c2ccccc2)c(=O)n1C` [Compound F45], for which the melting point is 185 to 186 °C. Moreover, the pest or weed control at 100 ppm in series [1] (setting [2]) fell in the range of 0 to 25%. Also, the pest or weed control at 100 ppm in series [1] (setting [3]) fell in the range of 0 to 25%.
The compound `COC(=O)/N=c1\c(F)cn(S(=O)(=O)c2ccc(C)cc2)c(=O)n1C` [Compound F46] had a melting point of 145 to 146 °C. In addition, the pest or weed control at 100 ppm in series [1] (setting [2]) was in the range of 0 to 25%. In addition, the pest or weed control at 100 ppm in series [1] (setting [3]) was in the range of 0 to 25%.
Regarding `CCc1ccc(S(=O)(=O)n2cc(F)/c(=N\C(=O)OC)n(C)c2=O)cc1` [Compound F47], the melting point fell in the range of 125 to 126 °C. For the same compound, in series [1] (setting [2]), the pest or weed control at 100 ppm was in the range of 0 to 25%. Also, the pest or weed control at 100 ppm in series [1] (setting [3]) lay within 0 to 25%.
In turn, `COC(=O)/N=c1\c(F)cn(S(=O)(=O)c2ccc(C(C)C)cc2)c(=O)n1C` [Compound F48] showed a melting point of 116 to 117 °C. In addition, in series [1] (setting [2]), the pest or weed control at 100 ppm lay in the range of 0 to 25%. In addition, the pest or weed control at 100 ppm in series [1] (setting [3]) lay within 0 to 25%.
For the compound `COC(=O)/N=c1\c(F)cn(S(=O)(=O)c2cccc(C)c2)c(=O)n1C` [Compound F49], the melting point lay in the range of 200 to 201 °C. Moreover, in series [1] (setting [2]), the pest or weed control at 100 ppm fell in the range of 0 to 25%. Also, the pest or weed control at 100 ppm in series [1] (setting [3]) was in the range of 0 to 25%.
As to `COC(=O)/N=c1\c(F)cn(S(=O)(=O)c2cc(C)c(Cl)cc2C)c(=O)n1C` [Compound F50], the melting point was 178 to 179 °C. Moreover, in series [1] (setting [2]), the pest or weed control at 100 ppm lay within 0 to 25%. Also, the pest or weed control at 100 ppm in series [1] (setting [3]) was 0 to 25%.
`COC(=O)/N=c1\c(F)cn(S(=O)(=O)c2cc(Cl)sc2Cl)c(=O)n1C` [Compound F51] displayed a melting point of 148 to 149 °C. Besides, the pest or weed control at 100 ppm in series [1] (setting [2]) was in the range of 0 to 25%. Besides, the pest or weed control at 100 ppm in series [1] (setting [3]) lay within 0 to 25%.
With `Cn1c(=O)n(S(=O)(=O)c2ccccc2)cc(F)/c1=N\Cc1ccccc1F` [Compound F52], the melting point is 189 to 192 °C. Further, the pest or weed control at 100 ppm in series [1] (setting [2]) was in the range of 0 to 25%. Moreover, the pest or weed control at 100 ppm in series [1] (setting [3]) lay within 0 to 25%.
`COc1ccc(S(=O)(=O)n2cc(F)/c(=N\Cc3ccccc3F)n(C)c2=O)cc1` [Compound F53, 5-fluoro-4-((2-fluorobenzyl)imino)-1-((4-methoxyphenyl)sulfonyl)-3-methyl-3,4-dihydropyrimidin-2(1H)-one]: the melting point fell in the range of 188 to 191 °C. Also, the pest or weed control at 100 ppm in series [1] (setting [2]) lay in the range of 0 to 25%. Further, the pest or weed control at 100 ppm in series [1] (setting [3]) fell in the range of 0 to 25%.
With `Cc1ccc(S(=O)(=O)n2cc(F)/c(=N\Cc3ccccc3F)n(C)c2=O)cc1` [Compound F54], the melting point lay within 184 to 187 °C. For the same compound, in series [1] (setting [2]), the pest or weed control at 100 ppm was 0 to 25%. The pest or weed control at 100 ppm in series [1] (setting [3]) is 0 to 25%.
For `CCc1ccc(S(=O)(=O)n2cc(F)/c(=N\Cc3ccccc3F)n(C)c2=O)cc1` [Compound F55], the melting point was in the range of 140 to 141 °C. Further, the pest or weed control at 100 ppm in series [1] (setting [2]) lay in the range of 0 to 25%. Also, in series [1] (setting [3]), the pest or weed control at 100 ppm is 0 to 25%.
With `CC(C)c1ccc(S(=O)(=O)n2cc(F)/c(=N\Cc3ccccc3F)n(C)c2=O)cc1` [Compound F56], the melting point was 140 to 143 °C. Besides, the pest or weed control at 100 ppm in series [1] (setting [2]) is 0 to 25%. Moreover, in series [1] (setting [3]), the pest or weed control at 100 ppm was 0 to 25%.
In the case of `Cc1cccc(S(=O)(=O)n2cc(F)/c(=N\Cc3ccccc3F)n(C)c2=O)c1` [Compound F57], the melting point lay in the range of 177 to 180 °C. Besides, the pest or weed control at 100 ppm in series [1] (setting [2]) was 0 to 25%. In addition, the pest or weed control at 100 ppm in series [1] (setting [3]) was in the range of 0 to 25%.
Compound `Cc1cc(S(=O)(=O)n2cc(F)/c(=N\Cc3ccccc3F)n(C)c2=O)c(C)cc1Cl` [Compound F58] came in with a melting point of 208 to 210 °C. In addition, the pest or weed control at 100 ppm in series [1] (setting [2]) was 0 to 25%. For the same compound, in series [1] (setting [3]), the pest or weed control at 100 ppm fell in the range of 0 to 25%.
`Cn1c(=O)n(S(=O)(=O)c2cc(Cl)sc2Cl)cc(F)/c1=N\Cc1ccccc1F` [Compound F59] came in with a melting point of 108 to 111 °C. Also, in series [1] (setting [2]), the pest or weed control at 100 ppm lay within 0 to 25%. The pest or weed control at 100 ppm in series [1] (setting [3]) lay in the range of 0 to 25%.

For the origin of these results see US10059703B2, “3-alkyl-5-fluoro-4-substituted-imino-3,4-dihydropyrimidin-2(1H)-one derivatives as fungicides” (Adama Makhteshim Ltd., priority 2012, dated 2018).
